According to the NIST ThermoML archive (doi:10.1021/je2005402):
± gives the expanded uncertainty stated by the source.

Conditions: Liquid, Ebulliometric method (Recirculating still)

Row | Structure (SMILES) | vapor or sublimation pressure (337.85 K) | vapor or sublimation pressure (363.25 K)
1 | CO [methanol] | 101.32 ± 1.1 kPa | 
2 | COC(=O)OC [dimethyl carbonate] |  | 101.32 ± 1.1 kPa
